{
  "source": "patent US20110097324A1",
  "about": "“COMPOSITIONS AND METHODS FOR MODULATING NICOTINIC/NMDA RECEPTOR FUNCTION” (CENTRE FOR ADDICTION AND MENTAL HEALTH, priority 2008, published 2011)",
  "key": {"[1]": {"test_system": "cultured hippocampal neurons", "format": "cell-based, rat", "settings": "for mEPSC amplitude 30 min after treatment: glycine 200 μM 3 min, choline 1 mM, AP5 100 μM", "protocol": "Primary cultures from hippocampus were prepared from fetal Wistar rats (embryonic day 17-19) on Cell+ (Sarstedt) culture dishes as previously described in (10). The cultures were used for experiments on 12-15 d after plating.\nMiniature excitatory postsynaptic currents (mEPSCs) were recorded from cultured hippocampal neurons 2 to 4 weeks days after plating under whole-cell patch clamp configuration (11). Electrodes (3-5 MΩ) were pulled from high lead pipettes (Corning 8161, Warner Instruments). Cells were voltage clamped at −70 mV. Access resistance is below 10 MΩ, recordings with access resistance varying more than 10% were rejected from analysis.\nTo determine whether activation of α7-nAchR is physiologically relevant in regulating synaptic strength, we examined the ability of α7-nAchR activation to modulate miniature excitatory postsynaptic currents (mEPSCs) during LTP in primary cultures of hippocampal neurons. mEPSCs in hippocampal neurons were recorded under whole-cell configuration. […] The cells were held at −70 mV to avoid potential interference by voltage-gated Ca^++ channels (12,13)."}, "[2]": {"test_system": "NMDA receptor", "format": "cell-based, rat"}, "[3]": {"test_system": "CREB", "format": "cell-based, rat", "quoted_text": "To confirm that α7 nAChR is responsible for the observed activation of CREB, we measured CREB activity in HEK-293 cells expressing α7 nAChR."}, "[4]": {"molecular_target": "α7-nAchR-NR2A interaction (Rattus norvegicus, UniProt Q00959+Q05941)", "sequence (Q05941 23-502, other chains not shown)": "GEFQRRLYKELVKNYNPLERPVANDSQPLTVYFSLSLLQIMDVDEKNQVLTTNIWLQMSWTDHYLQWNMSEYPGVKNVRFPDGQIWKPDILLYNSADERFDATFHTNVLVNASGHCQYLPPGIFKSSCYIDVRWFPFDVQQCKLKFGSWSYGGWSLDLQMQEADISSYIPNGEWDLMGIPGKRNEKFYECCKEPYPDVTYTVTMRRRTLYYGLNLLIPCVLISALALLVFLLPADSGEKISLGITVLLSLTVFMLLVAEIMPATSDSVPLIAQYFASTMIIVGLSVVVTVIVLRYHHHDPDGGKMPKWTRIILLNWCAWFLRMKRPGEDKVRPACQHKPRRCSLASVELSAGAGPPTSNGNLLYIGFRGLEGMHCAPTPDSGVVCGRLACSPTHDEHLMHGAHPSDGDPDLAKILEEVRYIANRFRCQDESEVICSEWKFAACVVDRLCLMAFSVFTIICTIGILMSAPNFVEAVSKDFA", "sequence (Q00959 20-1464, other chains not shown)": "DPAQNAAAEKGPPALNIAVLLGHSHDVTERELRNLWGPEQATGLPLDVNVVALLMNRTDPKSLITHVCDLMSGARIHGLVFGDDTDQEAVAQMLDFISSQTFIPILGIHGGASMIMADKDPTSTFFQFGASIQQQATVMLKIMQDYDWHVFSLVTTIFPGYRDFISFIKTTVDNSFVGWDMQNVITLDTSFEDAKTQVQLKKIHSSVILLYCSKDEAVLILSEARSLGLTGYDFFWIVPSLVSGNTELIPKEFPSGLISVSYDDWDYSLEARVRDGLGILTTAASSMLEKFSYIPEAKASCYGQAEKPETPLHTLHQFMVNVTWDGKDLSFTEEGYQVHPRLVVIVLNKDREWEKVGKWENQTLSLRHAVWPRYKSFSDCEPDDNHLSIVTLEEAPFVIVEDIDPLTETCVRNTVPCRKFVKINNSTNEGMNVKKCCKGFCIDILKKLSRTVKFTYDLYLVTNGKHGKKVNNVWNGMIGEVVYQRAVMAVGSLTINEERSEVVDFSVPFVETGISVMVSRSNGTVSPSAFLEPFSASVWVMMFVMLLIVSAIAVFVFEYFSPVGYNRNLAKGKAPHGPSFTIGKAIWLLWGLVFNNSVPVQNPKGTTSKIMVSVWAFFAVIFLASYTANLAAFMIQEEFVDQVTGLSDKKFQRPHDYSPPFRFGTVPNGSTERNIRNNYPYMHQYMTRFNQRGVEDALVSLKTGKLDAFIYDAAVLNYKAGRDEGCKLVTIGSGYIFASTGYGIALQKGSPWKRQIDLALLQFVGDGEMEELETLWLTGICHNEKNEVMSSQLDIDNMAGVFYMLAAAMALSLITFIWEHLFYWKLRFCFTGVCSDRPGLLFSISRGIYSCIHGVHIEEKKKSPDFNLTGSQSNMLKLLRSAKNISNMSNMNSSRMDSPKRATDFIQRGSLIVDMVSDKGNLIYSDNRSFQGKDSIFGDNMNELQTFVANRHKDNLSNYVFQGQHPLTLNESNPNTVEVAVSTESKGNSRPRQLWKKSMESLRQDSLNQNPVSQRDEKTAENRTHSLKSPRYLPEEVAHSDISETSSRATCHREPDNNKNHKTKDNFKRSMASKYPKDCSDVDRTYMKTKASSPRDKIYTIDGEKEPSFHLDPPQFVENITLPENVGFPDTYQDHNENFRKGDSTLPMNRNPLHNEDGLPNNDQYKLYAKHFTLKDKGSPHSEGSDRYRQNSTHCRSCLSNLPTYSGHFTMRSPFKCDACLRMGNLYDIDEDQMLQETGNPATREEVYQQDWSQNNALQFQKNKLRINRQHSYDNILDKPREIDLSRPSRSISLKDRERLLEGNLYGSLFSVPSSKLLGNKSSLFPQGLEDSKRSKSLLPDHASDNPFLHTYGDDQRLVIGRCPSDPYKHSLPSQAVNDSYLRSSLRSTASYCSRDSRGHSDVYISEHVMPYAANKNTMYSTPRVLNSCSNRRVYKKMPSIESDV", "format": "cell-based", "description": "To examine the effect of α7-nAchR activation on the interaction between α7-nAchR and NMDA receptors, we examined the ability of antibody against NR2A subunit to co-precipitate with the α7-nAchR in hippocampal primary culture treated with 1 mM choline or choline/NMDA (50 μM)."}, "[5]": {"test_system": "α7 nAChR: NR2A complex", "settings": "in vivo, 6 mg/kg/day", "description": "Thus, we pretreated rats with either nicotine or saline for 7 days subdermally (osmotic mini-pump, 6 mg/kg/day), and the expression of NR2A and α7 nAChR was examined in Western blot analysis."}},
  "data": [
    {"compound": "NC(CCCP(=O)(O)O)C(=O)O", "note": "(stereo not drawn) [AP5]", "values": [
      {"measurement": "effect on amplitude of mEPSCs", "setting": "[1]", "result": "can be abolished"}
    ]},
    {"compound": "C[C@]12N[C@H](Cc3ccccc31)c1ccccc12", "note": "[MK-801]", "values": [
      {"measurement": "block of enhancement of whole cell current induced by co-application of choline with NMDA", "setting": "[2]", "result": "can be blocked"}
    ]},
    {"compound": "CCN1C[C@]2(COC(=O)c3ccccc3N3C(=O)C[C@H](C)C3=O)CC[C@H](OC)[C@@]34[C@@H]5C[C@H]6[C@H](OC)[C@@H]5[C@](O)(C[C@@H]6OC)[C@](O)([C@@H](OC)[C@H]23)[C@@H]14", "note": "[MLA]", "values": [
      {"measurement": "block of nicotine-enhanced CREB activity", "setting": "[3]", "result": "can be blocked"}
    ]},
    {"compound": "CN[C@H](CC(=O)O)C(=O)O", "note": "[NMDA, N-methyl-D-aspartate]", "values": [
      {"measurement": "α7-nAchR-NR2A interaction after treatment", "setting": "[4]", "result": "no significant effect"}
    ]},
    {"compound": "C[N+](C)(C)CCO", "note": "[choline]", "values": [
      {"measurement": "mEPSC amplitude 30 min after treatment", "setting": "[1]", "result": "31.4+/−2.7 pA"}
    ]},
    {"compound": "NCC(=O)O", "note": "[glycine]", "values": [
      {"measurement": "mEPSC amplitude 30 min after treatment", "setting": "[1]", "result": "26.5+/−2.3 pA"}
    ]},
    {"compound": "CN1CCCC1c1cccnc1", "note": "(stereo not drawn) [nicotine]", "values": [
      {"measurement": "expression of NR2A or α7 nAChR in rat hippocampus", "setting": "[5]", "result": "no significant difference"},
      {"measurement": "α7 nAChR: NR2A complex formation in rat hippocampus", "setting": "[5]", "result": "significantly enhanced"}
    ]},
    {"compound": "α-bungarotoxin", "values": [
      {"measurement": "block of enhancement of whole cell current induced by co-application of choline with NMDA", "setting": "[2]", "result": "can abolish the choline induced upregulation of NMDA-mediated current"}
    ]}
  ]
}
